Measurements taken from ChEMBL document CHEMBL1212718, “Persistent signaling induced by FTY720-phosphate is mediated by internalized S1P1 receptors” (Nat Chem Biol, 2009).
Activity calls are given as the source filed them.

Columns and labels:
[1] = target: Sphingosine 1-phosphate receptor 1 (Homo sapiens) (UniProt P21453); conditions: CHO, 1 uM
Description: Agonist activity at human S1P1 receptor expressed in CHO cells assessed as inhibition of forskolin-stimulated cAMP formation at 1 uM after 60 mins

[2] = target: Sphingosine 1-phosphate receptor 1 (Homo sapiens) (UniProt P21453); test: Induction of human S1P1 receptor internalization expressed in CHO cells at 1 uM after 60 mins; assay type: cell-based
[3] = target: Sphingosine 1-phosphate receptor 1 (Homo sapiens) (UniProt P21453); test: Agonist activity at human S1P1 receptor expressed in CHO cells assessed as inhibition of forskolin-stimulated cAMP formation pretreated at 1 uM for 1 hr measured after 5 hrs washout peroid; assay type: functional, cell-based
[4] = target: Sphingosine 1-phosphate receptor 1 (Homo sapiens) (UniProt P21453); conditions: CHO, 1 uM; remark: listed apart in the source
Description: Agonist activity at human S1P1 receptor expressed in CHO cells assessed as inhibition of forskolin-stimulated cAMP formation at 1 uM after 20 mins

[5] = target: Sphingosine 1-phosphate receptor 1 (Homo sapiens) (UniProt P21453); test: Induction of human S1P1 receptor internalization expressed in CHO cells pretreated at 1 uM for 1 hr measured after 5 hrs washout period; assay type: cell-based

Sphingosine 1-phosphate receptor 1 (Homo sapiens), sequence (P21453 whole entry): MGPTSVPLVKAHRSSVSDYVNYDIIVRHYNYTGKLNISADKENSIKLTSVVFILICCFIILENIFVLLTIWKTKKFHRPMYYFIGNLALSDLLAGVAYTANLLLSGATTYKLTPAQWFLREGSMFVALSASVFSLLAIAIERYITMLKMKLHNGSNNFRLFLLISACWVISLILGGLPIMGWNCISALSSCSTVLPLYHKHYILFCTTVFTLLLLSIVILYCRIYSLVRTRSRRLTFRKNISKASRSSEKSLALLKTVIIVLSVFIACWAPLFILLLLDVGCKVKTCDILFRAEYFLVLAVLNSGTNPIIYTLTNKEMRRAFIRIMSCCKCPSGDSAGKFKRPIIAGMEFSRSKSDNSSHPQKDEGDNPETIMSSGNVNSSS

CCCCCCCCCCCCC/C=C/[C@@H](O)[C@@H](N)COP(=O)(O)O
active: inhibition [1] | Activity [2] | inhibition [3] | inhibition [4] | Activity [5]
